From patent US6537992B2, “Regulation of organic nitrate tolerance” (priority 2001, dated 2003)

How the values were obtained:
[1] = Standing systolic blood pressure and heart rate in normal volunteers during transdermal GTN, with oral folate or placebo; type: in vivo, human; details: acute transdermal GTN 0.6 mg/hr, 3 hours after initial patch application, both placebo and folate groups
Description: (§1) Normal volunteers (n=20) were randomized in a double bind, placebo-controlled fashion to either oral folate (5 mg per day) or placebo. After 1 week of this double-blind therapy, subjects returned to the laboratory. At that time, measures of standing systolic blood pressure and heart rate were recorded. Subsequently, measurements of forearm blood flow were made at rest and in response to sublingual nitroglycerin (0.6 mg). […] A Randomized Double-blind, Placebo-controlled Study, J Cardiovasc Pharm. 1999;34:645-659.
(§2) Subsequently all subjects all received transdermal GTN (0.6 mg/hr). Standing heart rate and blood pressure responses were repeated 3 hours after initial patch application. Subjects were discharged from the laboratory with instructions to take transdermal GTN continuously for the next 5 to 7 days, changing the patch each day at 0800 hours. After 5 to 7 days, subjects returned to the laboratory where measures of standing systolic blood pressure and heart rate as well as forearm blood flow were repeated.

[2] = Forearm blood flow by strain gauge plethysmography at rest and in response to sublingual nitroglycerin; type: in vivo, human; details: sublingual GTN 0.6 mg, before continuous GTN therapy, both groups
Description: as §1, §2

SMILES: O=[N+]([O-])OCC(CO[N+](=O)[O-])O[N+](=O)[O-] [GTN, glyceryl trinitrate]
- heart rate after acute administration [1]: significant increase
- systolic blood pressure after acute administration [1]: significant fall
- forearm blood flow after sublingual administration [2]: similar, significant increase
